Assay results: US20240252454A1, “COMPOSITION COMPRISING AN INHIBITOR OF MITOCHONDRIAL TRANSCRIPTION” (LEAD DISCOVERY CENTER GMBH, priority 2021, published 2024)

Assays:
Test in all cases: SRB assay, IMT combined with inhibitor
Type in all cases: cell-based
SW620 = SW620 (colon); concentration series of the labelled inhibitor + fixed concentration of IMT (3S)-1-[(2R)-2-[4-(2-chloro-4-fluoro-phenyl)-2-oxo-chromen-7-yl]oxypropanoyl]piperidine-3-carboxylic acid (Table 3: 40 nM, 120 h); negative=synergistic, positive=antagonistic
Procedure: (§1) Solforhodamine B assay is carried out as described in Voigt W. (2005) Sulforhodamine B Assay and Chemosensitivity. (Methods in Molecular Medicine™, vol 110. Humana Press. https://doi.org/10.1385/1-59259-869-2:039).
(§2) The determination of changes in cellular biomass was based on the Solforhodamine B assay format, carried out as described in Voigt W. (2005) Sulforhodamine B Assay and Chemosensitivity. (Methods in Molecular Medicine™, vol 110. Humana Press. https://doi.org/10.1385/1-59259-869-2:039).
(§3) All in vitro cell culture experiments were carried out under near physiological glucose concentrations (5 mM) in at least two independent replicates.
(§4) First, 30 different cell lines from 14 different tissue types were tested in the SRB assay format. The cells were examined individually for changes in growth over a period of 120 hours with dilution series of both inhibitors. Untreated cells were used as a negative control group. Subsequently, a dilution series of the respective MAPK signalling pathway SOCs was treated in combination with a fixed concentration of 40 nM (3S)-1-[(2R)-2-[4-(2-chloro-4-fluoro-phenyl)-2-oxo-chromen-7-yl]oxypropanoyl]piperidine-3-carboxylic acid.

MIAPACA2 = MIAPACA2 (pancreas); concentration series of the labelled inhibitor + fixed concentration of IMT (3S)-1-[(2R)-2-[4-(2-chloro-4-fluoro-phenyl)-2-oxo-chromen-7-yl]oxypropanoyl]piperidine-3-carboxylic acid (Table 3: 40 nM, 120 h); negative=synergistic, positive=antagonistic
Procedure: as §1, §2, §3, §4

A549 = A549 (lung); concentration series of the labelled inhibitor + fixed concentration of IMT (3S)-1-[(2R)-2-[4-(2-chloro-4-fluoro-phenyl)-2-oxo-chromen-7-yl]oxypropanoyl]piperidine-3-carboxylic acid (Table 3: 40 nM, 120 h); negative=synergistic, positive=antagonistic
Procedure: as §1, §2, §3, §4

HCT15 = HCT15 (colon); concentration series of the labelled inhibitor + fixed concentration of IMT (3S)-1-[(2R)-2-[4-(2-chloro-4-fluoro-phenyl)-2-oxo-chromen-7-yl]oxypropanoyl]piperidine-3-carboxylic acid (Table 3: 40 nM, 120 h); negative=synergistic, positive=antagonistic
Procedure: as §1, §2, §3, §4

HELA = HELA (cervix); concentration series of the labelled inhibitor + fixed concentration of IMT (3S)-1-[(2R)-2-[4-(2-chloro-4-fluoro-phenyl)-2-oxo-chromen-7-yl]oxypropanoyl]piperidine-3-carboxylic acid (Table 3: 40 nM, 120 h); negative=synergistic, positive=antagonistic
Procedure: as §1, §2, §3, §4

DU145 = DU145 (prostate); concentration series of the labelled inhibitor + fixed concentration of IMT (3S)-1-[(2R)-2-[4-(2-chloro-4-fluoro-phenyl)-2-oxo-chromen-7-yl]oxypropanoyl]piperidine-3-carboxylic acid (Table 3: 40 nM, 120 h); negative=synergistic, positive=antagonistic
Procedure: as §1, §2, §3, §4

MV4-11 = MV4-11 (hematological); concentration series of the labelled inhibitor + fixed concentration of IMT (3S)-1-[(2R)-2-[4-(2-chloro-4-fluoro-phenyl)-2-oxo-chromen-7-yl]oxypropanoyl]piperidine-3-carboxylic acid (Table 3: 40 nM, 120 h); negative=synergistic, positive=antagonistic
Procedure: as §1, §2, §3, §4

U2OS = U2OS (bone); concentration series of the labelled inhibitor + fixed concentration of IMT (3S)-1-[(2R)-2-[4-(2-chloro-4-fluoro-phenyl)-2-oxo-chromen-7-yl]oxypropanoyl]piperidine-3-carboxylic acid (Table 3: 40 nM, 120 h); negative=synergistic, positive=antagonistic
Procedure: as §1, §2, §3, §4

CALU6 = CALU6 (lung); concentration series of the labelled inhibitor + fixed concentration of IMT (3S)-1-[(2R)-2-[4-(2-chloro-4-fluoro-phenyl)-2-oxo-chromen-7-yl]oxypropanoyl]piperidine-3-carboxylic acid (Table 3: 40 nM, 120 h); negative=synergistic, positive=antagonistic
Procedure: as §1, §2, §3, §4

KASUMI-1 = KASUMI-1 (hematological); concentration series of the labelled inhibitor + fixed concentration of IMT (3S)-1-[(2R)-2-[4-(2-chloro-4-fluoro-phenyl)-2-oxo-chromen-7-yl]oxypropanoyl]piperidine-3-carboxylic acid (Table 3: 40 nM, 120 h); negative=synergistic, positive=antagonistic
Procedure: as §1, §2, §3, §4

A673 = A673 (muscle); concentration series of the labelled inhibitor + fixed concentration of IMT (3S)-1-[(2R)-2-[4-(2-chloro-4-fluoro-phenyl)-2-oxo-chromen-7-yl]oxypropanoyl]piperidine-3-carboxylic acid (Table 3: 40 nM, 120 h); negative=synergistic, positive=antagonistic
Procedure: as §1, §2, §3, §4

U87MG = U87MG (brain); concentration series of the labelled inhibitor + fixed concentration of IMT (3S)-1-[(2R)-2-[4-(2-chloro-4-fluoro-phenyl)-2-oxo-chromen-7-yl]oxypropanoyl]piperidine-3-carboxylic acid (Table 3: 40 nM, 120 h); negative=synergistic, positive=antagonistic
Procedure: as §1, §2, §3, §4

SKOV3 = SKOV3 (ovary); concentration series of the labelled inhibitor + fixed concentration of IMT (3S)-1-[(2R)-2-[4-(2-chloro-4-fluoro-phenyl)-2-oxo-chromen-7-yl]oxypropanoyl]piperidine-3-carboxylic acid (Table 3: 40 nM, 120 h); negative=synergistic, positive=antagonistic
Procedure: as §1, §2, §3, §4

SKMEL5 = SKMEL5 (skin); concentration series of the labelled inhibitor + fixed concentration of IMT (3S)-1-[(2R)-2-[4-(2-chloro-4-fluoro-phenyl)-2-oxo-chromen-7-yl]oxypropanoyl]piperidine-3-carboxylic acid (Table 3: 40 nM, 120 h); negative=synergistic, positive=antagonistic
Procedure: as §1, §2, §3, §4

JAR = JAR (placenta); concentration series of the labelled inhibitor + fixed concentration of IMT (3S)-1-[(2R)-2-[4-(2-chloro-4-fluoro-phenyl)-2-oxo-chromen-7-yl]oxypropanoyl]piperidine-3-carboxylic acid (Table 3: 40 nM, 120 h); negative=synergistic, positive=antagonistic
Procedure: as §1, §2, §3, §4

SMILES | difference between the calculated combinatorial index (BLISS) and the observed combinatorial effect (SW620) | difference between the calculated combinatorial index (BLISS) and the observed combinatorial effect (MIAPACA2) | difference between the calculated combinatorial index (BLISS) and the observed combinatorial effect (A549) | difference between the calculated combinatorial index (BLISS) and the observed combinatorial effect (HCT15) | difference between the calculated combinatorial index (BLISS) and the observed combinatorial effect (HELA) | difference between the calculated combinatorial index (BLISS) and the observed combinatorial effect (DU145) | difference between the calculated combinatorial index (BLISS) and the observed combinatorial effect (MV4-11) | difference between the calculated combinatorial index (BLISS) and the observed combinatorial effect (U2OS) | difference between the calculated combinatorial index (BLISS) and the observed combinatorial effect (CALU6) | difference between the calculated combinatorial index (BLISS) and the observed combinatorial effect (KASUMI-1) | difference between the calculated combinatorial index (BLISS) and the observed combinatorial effect (A673) | difference between the calculated combinatorial index (BLISS) and the observed combinatorial effect (U87MG) | difference between the calculated combinatorial index (BLISS) and the observed combinatorial effect (SKOV3) | difference between the calculated combinatorial index (BLISS) and the observed combinatorial effect (SKMEL5) | difference between the calculated combinatorial index (BLISS) and the observed combinatorial effect (JAR)
CC(=O)Nc1cccc(-n2c(=O)n(C3CC3)c(=O)c3c(Nc4ccc(I)cc4F)n(C)c(=O)c(C)c32)c1 [Trametinib] | 0.0028 | 0.1602 | −0.0142 | 0.0677 | −0.0064 | 0.0287 | 0.0747 | −0.0358 | −0.0308 | −0.0377 | 0.0225 | 0.0578 | −0.0444 | 0.0072 | 0.0230
O=C(c1ccc(F)c(F)c1Nc1ccc(I)cc1F)N1CC(O)([C@@H]2CCCCN2)C1 [Cobimetinib] | −0.0609 | −0.0673 | −0.0490 | 0.0539 | −0.0068 | 0.0164 | 0.0051 | −0.0663 | 0.0286 | −0.0232 | 0.0185 | 0.0347 | 0.0499 | −0.0872 | 0.0139
O=C(NOC[C@H](O)CO)c1ccc(F)c(F)c1Nc1ccc(I)cc1F [PD 0325901, (R)—N-(2,3-dihydroxypropoxy)-3,4-difluoro-2-((2-fluoro-4-iodophenyl)amino)benzamide] | 0.0316 | 0.0500 | −0.0245 | 0.1249 | −0.2549 | −0.0558 | 0.0637 | 0.0014 | 0.0809 | −0.0286 | 0.0281 | 0.0604 | −0.0555 | 0.0095 | 0.0256
O=C(c1cc(Cc2n[nH]c(=O)c3ccccc23)ccc1F)N1CCN(C(=O)C2CC2)CC1 [Olaparib] | 0.0198 | 0.0529 | 0.0174 | −0.0472 | −0.0307 | 0.0557 | 0.0407 | −0.0034 | 0.0400 | −0.0415 | 0.0334 | 0.0523 | 0.0092 | – | 0.0294
